According to patent US10273236B2, “Macrocyclic factor XIa inhibitors bearing heterocyclic groups” (Bristol-Myers Squibb Company, priority 2014, dated 2019):
Structures can show the parent of a compound that is named as a salt.

Key:
[1] = target: T1, purified human plasma kallikrein (Homo sapiens, UniProt P03952); assay: Plasma kallikrein inhibition assay, chromogenic substrate S-2302 (Ki); format: biochemical
T1 construct: Plasma prekallikrein is a zymogen of a trypsin-like serine protease; purchased Enzyme Research Laboratories
Procedure: (§1) The effectiveness of compounds of the present invention as inhibitors of the coagulation Factors XIa, VIIa, IXa, Xa, XIIa, plasma kallikrein or thrombin, can be determined using a relevant purified serine protease, respectively, and an appropriate synthetic substrate. The rate of hydrolysis of the chromogenic or fluorogenic substrate by the relevant serine protease was measured both in the absence and presence of compounds of the present invention. […] A decrease in the rate of absorbance or fluorescence change in the presence of inhibitor is indicative of enzyme inhibition. Such methods are known to one skilled in the art. The results of this assay are expressed as the inhibitory constant, Ki.
Plasma kallikrein determinations were made in 0.1 M sodium phosphate buffer at a pH of 7.5 containing 0.1-0.2 M sodium chloride and 0.5% PEG 8000. Determinations were made using purified human plasma kallikrein (Enzyme Research Laboratories) at a final assay concentration of 200 pM and the synthetic substrate S-2302 (H-(D)-Pro-Phe-Arg-pNA; Chromogenix) at a concentration of 0.00008-0.0004 M.
(§2) Values of Ki were determined by allowing the protease to react with the substrate in the presence of the inhibitor.
(§3) Reactions were allowed to go for periods of 20-180 minutes (depending on the protease) and the velocities (rate of absorbance or fluorescence change versus time) were measured.
(§4) The following relationships were used to calculate Ki values: (Vmax*S)/(Km+S) (vo−vs)/vs=I/(Ki(1+S/Km)) for a competitive inhibitor with one binding site; or vs/vo=A+((B−A)/1+((IC50/(I)^n))); and Ki=IC50/(1+S/Km) for a competitive inhibitor where: […]

[2] = target: T2, purified human Factor XIa (Homo sapiens, UniProt P03951); assay: Factor XIa inhibition assay, chromogenic substrate S-2366 (Ki); format: biochemical
T2 construct: purchased Haematologic Technologies
Procedure: as §1
Factor XIa determinations were made in 50 mM HEPES buffer at pH 7.4 containing 145 mM NaCl, 5 mM KCl, and 0.1% PEG 8000 (polyethylene glycol; JT Baker or Fisher Scientific). Determinations were made using purified human Factor XIa at a final concentration of 25-200 pM (Haematologic Technologies) and the synthetic substrate S-2366 (pyroGlu-Pro-Arg-pNA; Chromogenix or AnaSpec) at a concentration of 0.0002-0.001 M.
as §2, §3, §4

T1 sequence (P03952 391-638 limits assumed): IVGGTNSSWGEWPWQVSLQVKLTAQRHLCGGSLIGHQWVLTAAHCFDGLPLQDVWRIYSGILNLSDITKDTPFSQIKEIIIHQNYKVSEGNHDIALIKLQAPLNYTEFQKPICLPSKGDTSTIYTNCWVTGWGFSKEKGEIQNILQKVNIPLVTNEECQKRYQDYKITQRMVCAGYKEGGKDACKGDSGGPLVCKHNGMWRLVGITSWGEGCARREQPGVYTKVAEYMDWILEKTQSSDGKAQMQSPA
T1 sequence (P03952 20-390 partner limits assumed): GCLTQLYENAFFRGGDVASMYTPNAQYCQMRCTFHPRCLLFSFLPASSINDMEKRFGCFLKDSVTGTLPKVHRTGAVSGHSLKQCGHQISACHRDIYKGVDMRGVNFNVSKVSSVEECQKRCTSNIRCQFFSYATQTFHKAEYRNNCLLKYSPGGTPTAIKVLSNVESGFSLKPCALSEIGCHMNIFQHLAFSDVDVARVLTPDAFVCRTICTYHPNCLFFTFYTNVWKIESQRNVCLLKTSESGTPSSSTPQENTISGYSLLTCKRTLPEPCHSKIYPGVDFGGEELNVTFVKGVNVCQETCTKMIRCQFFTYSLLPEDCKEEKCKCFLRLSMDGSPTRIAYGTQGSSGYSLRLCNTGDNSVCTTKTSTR
T2 sequence (P03951 388-625 limits assumed): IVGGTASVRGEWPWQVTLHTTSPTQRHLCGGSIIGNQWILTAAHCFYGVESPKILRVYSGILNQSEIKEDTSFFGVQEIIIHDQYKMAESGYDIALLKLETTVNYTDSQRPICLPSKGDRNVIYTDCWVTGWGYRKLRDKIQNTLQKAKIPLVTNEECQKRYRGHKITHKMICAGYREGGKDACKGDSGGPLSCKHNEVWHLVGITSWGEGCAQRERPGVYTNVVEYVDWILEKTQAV
T2 sequence (P03951 19-387 partner limits assumed): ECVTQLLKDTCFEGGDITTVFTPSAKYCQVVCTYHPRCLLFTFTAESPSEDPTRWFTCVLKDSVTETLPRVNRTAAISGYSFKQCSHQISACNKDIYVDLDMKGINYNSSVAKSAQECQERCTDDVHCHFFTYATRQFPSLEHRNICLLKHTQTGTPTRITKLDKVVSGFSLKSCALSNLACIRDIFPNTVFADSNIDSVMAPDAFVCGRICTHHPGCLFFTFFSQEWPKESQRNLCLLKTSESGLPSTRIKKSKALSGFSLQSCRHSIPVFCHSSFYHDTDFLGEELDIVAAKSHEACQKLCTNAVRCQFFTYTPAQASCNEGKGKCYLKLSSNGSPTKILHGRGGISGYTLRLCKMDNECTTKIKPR

Row | Ki [1] | Ki [2] | Compound
1 | 41 nM |  | CCn1ncc2c1-c1ccnc(c1)[C@@H](N1CCC(c3cc(Cl)ccc3-n3ccnn3)=CC1=O)CCC[C@@H](C)C(=O)N2 (stereo in doubt) [Example 7, 13-{4-[5-chloro-2-(1H-1,2,3-triazol-1-yl)phenyl]-6-oxo-1,2,3,6-tetrahydropyridin-1-yl}-3-ethyl-9-methyl-3,4,7,15-tetraazatricyclo[12.3.1.0^2,6]octadeca-1(18),2(6),4,14,16-pentaen-8-one]
2 | 90 nM |  | C[C@@H]1CCC[C@H](N2CCC(c3cc(Cl)ccc3-n3ccnn3)=CC2=O)c2cc(ccn2)-c2c(cnn2CC(F)F)NC1=O (stereo in doubt) [Example 8, 13-{4-[5-chloro-2-(1H-1,2,3-triazol-1-yl)phenyl]-6-oxo-1,2,3,6-tetrahydropyridin-1-yl}-3-(2,2-difluoroethyl)-9-methyl-3,4,7,15-tetraazatricyclo [12.3.1.0^2,6]octadeca-1(18),2(6),4,14,16-pentaen-8-one]
3 | 30 nM | 10 nM | C[C@@H]1CCC[C@H](N2CCC(c3c(F)ccc(Cl)c3F)=CC2=O)c2cc(ccn2)-c2c(cnn2C)NC1=O [Example 2, (9R,13S)-13-[4-(3-chloro-2,6-difluorophenyl)-6-oxo-1,2,3,6-tetrahydropyridin-1-yl]-3,9-dimethyl-3,4,7,15-tetraazatricyclo[12.3.1.0^2,6]octadeca-1(18),2(6),4,14,16-pentaen-8-one]
4 | 7 nM | 1.7 nM | C[C@@H]1CCC[C@H](N2CCC(c3c(C(F)(F)F)ccc(Cl)c3F)=CC2=O)c2cc(ccn2)-c2c(cnn2C)NC1=O [Example 6]
5 | 14 nM | 14 nM | C[C@@H]1CCC[C@H](N2CCC(c3c(F)ccc(Cl)c3F)=CC2=O)c2cc(ccn2)-c2nn(-c3ccnc(O)c3)cc2NC1=O [Example 9, (9R,13S)-13-[4-(3-chloro-2,6-difluorophenyl)-6-oxo-1,2,3,6-tetrahydropyridin-1-yl]-4-(2-hydroxypyridin-4-yl)-9-methyl-3,4,7,15-tetraazatricyclo[12.3.1.0^2,6]octadeca-1(18),2,5,14,16-pentaen-8-one]
6 | 50 nM | 14 nM | CCn1ncc2c1-c1ccnc(c1)[C@@H](N1CCC(c3c(F)ccc(Cl)c3F)=CC1=O)CCC[C@@H](C)C(=O)N2 [Example 10, (9R,13S)-13-[4-(3-chloro-2,6-difluorophenyl)-6-oxo-1,2,3,6-tetrahydropyridin-1-yl]-3-ethyl-9-methyl-3,4,7,15-tetraazatricyclo[12.3.1.0^2,6]octadeca-1(18),2(6),4,14,16-pentaen-8-one]
7 | 110 nM | 1 nM | C[C@@H]1CCC[C@H](N2CCC(c3c(C(F)(F)F)ccc(Cl)c3F)=CC2=O)c2cc(ccn2)-c2c(cnn2C(F)F)NC1=O [Example 14, (9R,13S)-13-{4-[3-chloro-2-fluoro-6-(trifluoromethyl)phenyl]-6-oxo-1,2,3,6-tetrahydropyridin-1-yl}-3-(difluoromethyl)-9-methyl-3,4,7,15-tetraazatricyclo[12.3.1.0^2,6]octadeca-1(18),2(6),4,14,16-pentaen-8-one]

The remaining lines, values behind:

Row | Compound | Ki [1] | Ki [2]
8 | C[C@H]1C(=O)Nc2cnn(C)c2-c2ccnc(c2)[C@@H](N2CCC(c3cc(Cl)ccc3-n3cc(Cl)nn3)=CC2=O)CCC1F (single isomer, unassigned; isomer a) [Example 13] | 6 nM | 0.1 nM
9 | C[C@H]1C(=O)Nc2cnn(C)c2-c2ccnc(c2)[C@@H](N2CCC(c3cc(Cl)ccc3-n3cc(Cl)nn3)=CC2=O)CCC1F (single isomer, unassigned; isomer b) [Example 15] | 450 nM | 19 nM
10 | C[C@@H]1CCC[C@H](N2CCC(c3cc(Cl)ccc3-n3ccnn3)=CC2=O)c2cc(ccn2)-c2c(cnn2C2CC2)NC1=O (stereo in doubt) [Example 5, 13-{4-[5-chloro-2-(1H-1,2,3-triazol-1-yl)phenyl]-6-oxo-1,2,3,6-tetrahydropyridin-1-yl}-3-cyclopropyl-9-methyl-3,4,7,15-tetraazatricyclo [12.3.1.0^2,6]octadeca-1(18),2(6),4,14,16-pentaen-8-one] | 52 nM | 1.4 nM
11 | C[C@@H]1CCC[C@H](N2CCC(c3cc(Cl)ccc3-n3ccnn3)=CC2=O)c2cc(ccn2)-c2c(cnn2CCO)NC1=O (stereo in doubt) [Example 11, 13-{4-[5-chloro-2-(1H-1,2,3-triazol-1-yl)phenyl]-6-oxo-1,2,3,6-tetrahydropyridin-1-yl}-3-(2-hydroxyethyl)-9-methyl-3,4,7,15-tetraazatricyclo[12.3.1.0^2,6]octadeca-1(18),2(6),4,14,16-pentaen-8-one] | 140 nM | 5.5 nM
12 | C[C@@H]1CCC[C@H](N2CCC(c3cc(Cl)ccc3-n3ccnn3)=CC2=O)c2cc(ccn2)-c2c(cnn2C)NC1=O [Example 1, (9R,13S)-13-{4-[5-chloro-2-(1H-1,2,3-triazol-1-yl)phenyl]-6-oxo-1,2,3,6-tetrahydropyridin-1-yl}-3,9-dimethyl-3,4,7,15-tetraazatricyclo[12.3.1.0^2,6]octadeca-1(18),2(6),4,14,16-pentaen-8-one trifluoroacetate] | 24 nM | 1.8 nM
13 | C[C@@H]1CCC[C@H](N2CCC(c3cc(Cl)ccc3-n3cc(Cl)nn3)=CC2=O)c2cc(ccn2)-c2c(cnn2C)NC1=O [Example 3, (9R,13S)-13-{4-[5-chloro-2-(4-chloro-1H-1,2,3-triazol-1-yl)phenyl]-6-oxo-1,2,3,6-tetrahydropyridin-1-yl}-3,9-dimethyl-3,4,7,15-tetraazatricyclo [12.3.1.0^2,6]octadeca-1(18),2(6),4,14,16-pentaen-8-one] | 6 nM | 0.12 nM
14 | C[C@@H]1CCC[C@H](n2ccc(-c3cc(Cl)ccc3C#N)cc2=O)c2cc(ccn2)-c2c(cnn2C(F)F)NC1=O [Example 4, 4-chloro-2-{1-[(9R,13S)-3-(difluoromethyl)-9-methyl-8-oxo-3,4,7,15-tetraazatricyclo[12.3.1.0^2,6]octadeca-1(18),2(6),4,14,16-pentaen-13-yl]-2-oxo-1,2-dihydropyridin-4-yl}benzonitrile] | 19 nM | 3.2 nM
15 | C[C@@H]1CCC[C@H](N2CCC(c3cc(Cl)ccc3-n3ccnn3)=CC2=O)c2cc(ccn2)-c2nn(CC(=O)O)cc2NC1=O [Example 12, 2-(13-{4-[5-chloro-2-(1H-1,2,3-triazol-1-yl)phenyl]-6-oxo-1,2,3,6-tetrahydropyridin-1l-yl}-9-methyl-8-oxo-3,4,7,15-tetraazatricyclo[12.3.1.0^2,6]octadeca-1(18),2,5,14,16-pentaen-4-yl)acetic Acid] | 480 nM | 14 nM
16 | C[C@@H]1CCC[C@H](N2CCC(c3cc(Cl)ccc3-n3cc(Cl)nn3)=CC2=O)c2cc(ccn2)-c2c(cnn2CC(=O)O)NC1=O [Example 16, 2-[(9R,13S)-13-{4-[5-chloro-2-(4-chloro-1H-1,2,3-triazol-1-yl)phenyl]-6-oxo-1,2,3,6-tetrahydropyridin-1-yl}-9-methyl-8-oxo-3,4,7,15-tetraazatricyclo [12.3.1.0^2,6]octadeca-1(18),2(6),4,14,16-pentaen-3-yl]acetic acid] | 17 nM | 0.19 nM
